Assay results reported in ChEMBL document CHEMBL1125065, “Synthesis and anti-HIV activity of carbocyclic 2',3'-didehydro-2',3'-dideoxy 2,6-disubstituted purine nucleosides” (J Med Chem, 1990).
Converted amounts (≈) assume the structure as drawn.

Tests used:
MT2 [1] = assay: Effective concentration that increases formazan production in infected MT-2 cells; type: functional, cell-based; conditions: Homo sapiens
MT2 [2] = assay: Inhibitory concentration that reduces formazan production in uninfected MT-2 cells.; conditions: Homo sapiens
[3] = Therapeutic index for the compound was determined (IC50/EC50); conditions: read-out: TI
P388 = assay: Inhibitory concentration of compound for P-388 Leukemia cell culture; type: functional; conditions: Mus musculus, read-out: ED50 (the source's name)
CCRF-CEM [4] = assay: Percent reduction in p24 gag expression in CEM cells; type: functional, Homo sapiens
CCRF-CEM [5] = assay: Inhibitory effect against synthesis of p24 gag protein in CEM cells.; type: functional, Homo sapiens

SMILES | EC50 (MT2 [1]) | IC50 (MT2 [2]) | selectivity ratio [3] | EC50 (P388) | Reduction (CCRF-CEM [4]) | p24 synthesis (CCRF-CEM [5])
Nc1ccn([C@H]2CC[C@@H](CO)O2)c(=O)n1 [ZALCITABINE] | 0.29 µg/mL (≈ 1.37 µM) | 44 µg/mL (≈ 208 µM) | 152 |  |  | 
Nc1nc(Cl)c2nnn(C3CCC(CO)C3)c2n1 (stereo not given) |  |  |  | 18 µg/mL (≈ 67 µM) |  | 
Cc1cn([C@H]2C[C@H](N=[N+]=[N-])[C@@H](CO)O2)c(=O)[nH]c1=O [ZIDOVUDINE] |  |  |  |  | >99.96% | 32 ng/mL
Nc1nc(Cl)c2ncn(C3CCC(CO)C3)c2n1 (stereo not given) | > 100 µg/mL | > 100 µg/mL |  | > 100 µg/mL |  | 
Nc1nc(N)c2nnn(C3C=CC(CO)C3)c2n1 (stereo not given) |  |  |  | > 100 µg/mL |  | 
Nc1nc(Cl)c2ncn(C3C=CC(CO)C3)c2n1 (stereo not given) | 0.4 µg/mL (≈ 1.51 µM) | 6.97 µg/mL (≈ 26.2 µM) | 17.3 | 75 µg/mL (≈ 282 µM) |  | 
Nc1nc(O)c2nnn(C3CCC(CO)C3)c2n1 (stereo not given) |  |  |  | 51 µg/mL (≈ 204 µM) |  | 
Nc1nc(O)c2nnn(C3C=CC(CO)C3)c2n1 (stereo not given) |  |  |  | 4.5 µg/mL (≈ 18.1 µM) |  | 
Nc1nc(N)c2ncn(C3CCC(CO)C3)c2n1 (stereo not given) | 16.7 µg/mL (≈ 67.3 µM) | > 100 µg/mL | > 5.9 | 80 µg/mL (≈ 322 µM) |  | 
Nc1nc(N)c2ncn(C3C=CC(CO)C3)c2n1 (stereo not given) | 4.7 µg/mL (≈ 19.1 µM) | > 125 µg/mL | > 26.6 | > 100 µg/mL |  | 
Nc1nc(Cl)c2nnn(C3C=CC(CO)C3)c2n1 (stereo not given) |  |  |  | 1 µg/mL (≈ 3.75 µM) |  | 
Nc1nc(N)c2nnn(C3CCC(CO)C3)c2n1 (stereo not given) |  |  |  | > 100 µg/mL |  | 
Nc1nc(O)c2ncn(C3CCC(CO)C3)c2n1 (stereo not given) | > 100 µg/mL | > 100 µg/mL |  | > 100 µg/mL |  | 
Nc1nc2c(ncn2[C@H]2C=C[C@@H](CO)C2)c(=O)[nH]1 [CARBOVIR] | 0.19 µg/mL (≈ 0.768 µM) | 41.8 µg/mL (≈ 169 µM) | 220 | > 100 µg/mL | >99.97% | 28 ng/mL
